From patent US20070066672A1, “Benzimidazole derivatives and use thereof as peptide deformylase inhibitors” (Arpida A/S, priority 2003, published 2007)

Key:
[1] = target: T1, Peptide Deformylase (PDF) (Escherichia coli, UniProt P0A6K3); test: Bacterial peptide deformylase (PDF) assay, colorimetric cell free, enzyme from E. coli; assay type: biochemical
T1 construct: made in house
Excerpt: (§1) To find inhibitors of Peptide Deformylase (PDF), a colorimetric cell free assay for measuring the enzymatic activity of PDF has been adapted to the microtiter plate format (96 wells). The assay comprises three components, purified PDF, f-Met-Ala as substrate and TNBS as the detecting agent of primary amino groups. The resulting TNP_NH-Met-Ala sulfite complex can be detected at 420 nm. PDF enzymes, containing Fe^2+ as the native metal, are purified and are stabilized by the addition of tris(2-carboxyethyl)phosphine (TCEP).
(§2) The IC50 value of a compound of the invention as a bacterial PDF inhibitor was determined using the following assay.
(§3) Assay buffer 0.1 M MOPS pH was adjusted to 7.2 with NaOH, containing 0.25 M NaCl, 100 μg/mL catalase and 1 mg/mL BSA.
(§4) E. coli enzyme (2.5 mg/ml) 10 μl+290 μl Assay buffer, 1 μl per ml enzyme mix. S. aureus (15 mg/ml) 10 μl+990 μl Assay buffer, 0.3 μl per ml enzyme mix.
(§5) Substrate mix: 10 mM f-Met-Ala was made up from 200 mM f-Met-Ala in methanol with assay buffer.
(§6) TNBS solution: Freshly dilute 1 M TNBS stock solution diluted 1:10 with water.
(§7) Buffer C: 0.5 M borate buffer adjusted to pH 9.5 with NaOH.
(§8) Buffer D: 0.2 ml of freshly prepared 0.5 M Na2SO3 was mixed with 9.8 mL of 0.5M NaH2PO4.
(§9) Inhibitor solution: 2 mM Sodium 4-(hydroxymercurio)benzoate in assay buffer.
(§10) Compound mix: Compound of formula I dissolved in DMSO in a 10 mg/mL stock solution. Further dilutions were made in DMSO in the concentration range between 0.05 to 100 mM.
(§11) The assay was performed in a 96 Microtiter plate containing test compound. To each well containing test compound mix was added 75 microliter of enzyme mix from E. coli followed by the addition of 25 microliter of substrate mix. The resulting mix was incubated for 30 minutes at room temperature with shaking. TNBS solution (50 microliter/well) was added and the resulting mixture was incubated for 15 minutes under shaking. Buffer C was then added (20 microliter/well). After incubating at room temperature for 15 minutes under shaking, buffer D was added (50 microliter/well). The optical […] was then measured at 420 nm, thereby determining the IC50 value.

[2] = target: T2, Peptide Deformylase (PDF) (Staphylococcus aureus, UniProt P68826); test: Bacterial peptide deformylase (PDF) assay, colorimetric cell free, enzyme from S. aureus; assay type: biochemical; conditions: f-Met-Ala substrate, TNBS detection at 420 nm
T2 construct: made in house
T2 sequence (P68826 1-183): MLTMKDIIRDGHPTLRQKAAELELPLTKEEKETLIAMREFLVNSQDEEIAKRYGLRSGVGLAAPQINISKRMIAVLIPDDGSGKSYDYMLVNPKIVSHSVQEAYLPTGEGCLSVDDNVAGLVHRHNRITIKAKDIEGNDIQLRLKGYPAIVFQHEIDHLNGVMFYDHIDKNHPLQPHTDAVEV
Excerpt: as §1, §2, §3, §4, §5, §6, §7, §8, §9, §10, §11
The assay was repeated using enzyme mix from S. aureus.

T1 sequence (P0A6K3 whole entry): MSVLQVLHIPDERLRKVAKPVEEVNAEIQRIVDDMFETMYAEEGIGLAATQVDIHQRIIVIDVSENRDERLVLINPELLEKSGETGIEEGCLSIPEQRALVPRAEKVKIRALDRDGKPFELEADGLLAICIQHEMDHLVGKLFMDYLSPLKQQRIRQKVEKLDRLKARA

Compound	IC50 [1]	IC50 [2]
COC(=O)CNC(=O)c1ccc2c(c1)nc(C(CCCCN)NC(=O)CCS)n2Cc1ccccc1 (stereo not drawn) [Example 49, ({2-[5-Amino-1-(3-mercapto-propionylamino)-pentyl]-1-benzyl-1H-benzoimidazole-5-carbonyl}-amino)-acetic acid methyl ester]	5.2 µM	2.4 µM
COC(=O)CNC(=O)c1ccc2c(c1)nc(C(Cc1ccc(O)cc1)NC(=O)CCS)n2C1CC1 (stereo not drawn) [Example 20, ({1-Cyclopropyl-2-[2-(4-hydroxy-phenyl)-1-(3-mercapto-propionylamino)-ethyl]-1H-benzoimidazole-5-carbonyl}-amino)-acetic acid methyl ester]	> 200 µM	> 200 µM
CCC(NC(=O)CCC(=O)O)c1nc2cc(C(=O)NCC(=O)OC)ccc2n1C1CC1 (stereo not drawn) [Example 10, N-{1-[1-Cyclopropyl-5-(methoxycarbonylmethyl-carbamoyl)-1H-benzoimidazol-2-yl]-propyl}-succinamic acid]	5.6 µM	0.023 µM
